Results taken from patent publication US7199152B2, “TNF-α production inhibitor comprising kavalactone as an active ingredient” (Meiji Dairies Corporation, priority 2000, dated 2007).

Legend:
[1] = system: TNF-α production in BALB/3T3 cells stimulated by okadaic acid; test: Inhibition of TNF-α production (in vitro) in BALB/3T3 cells stimulated by okadaic acid, ELISA; format: cell-based; conditions: for TNF-α production relative to the TNF-α production of the control: okadaic acid 0.2 μM, 24 hours, control = 100%; for TNF-α production inhibitory effect, overall assessment (in words): BALB/3T3 cells, okadaic acid stimulation
Method: In response to stimulation by okadaic acid (9,10-deepithio-9,10-didehydroacanthifolicin), BALB/3T3 cells produce TNF-α. The compounds of the present invention were investigated in terms of inhibitory effect on TNF-α production.
An MEM medium (product of Nissui) containing 10% fetal calf serum (product of Biocell Laboratory) was injected into 12-well multiplates (product of Corning), and BALB/3T3 cells were disseminated at 2×10^5 cells/well. The cells were cultured in a carbon dioxide gas incubator (5% Co2, humidified, 37° C.). Subsequently, KAVA-1, KAVA-2, KAVA-3, KAVA-4, or KAVA-5 was added to the wells at a concentration shown in FIG. 1, and the cells were cultured for one hour. No KAVA compound was added to the control wells. After completion of culturing, okadaic acid (carcinogenisis promoter isolated from Halichondria okadai) was added to each well at a final concentration of 0.2 μM, and culturing was performed for 24 hours. After completion of this culturing, the TNF-α concentration of the supernatant of each well was measured by means of ELISA system (product of Genzyme). In FIG. 1, the amount of TNF-α release corresponding to each compound concentration is represented by a percent concentration based on the amount of TNF-α release measured for the control (100%).

[2] = system: TNF-α production in serum induced by LPS; test: TNF-α inhibitory effect (in vivo), LPS-induced serum TNF-α in mice, ELISA; parameters: species or system BALB/c mice; conditions: 40 mg/kg intraperitoneally, LPS 50 μg/mouse i.p. immediately after, serum 90 minutes after LPS
Method: Male BALB/cAnNCrj mice of 6 weeks age were purchased from Japan Charles River, and those having body weights of 30 g or lower were tested.
Seven mice groups, each group consisting of six mice, were provided; i.e., 1) a group to which distilled water for injection was administered (non-treated group) (N); 2) a group to which a 0.3% carboxymethyl cellulose-Na (0.3% CMC-Na) suspension was administered (control group) (C); and 3) five groups to which KAVA-1, KAVA-2, KAVA-3, KAVA-4, and KAVA-5, respectively, were administered (0.3% CMC-Na was used as a solvent).
Each of KAVA-1, KAVA-2, KAVA-3, KAVA-4, and KAVA-5 was prepared to a drug liquid of 40 mg/10 ml. The liquid was intraperitoneally administered at 10 ml/kg (dose: 40 mg/kg), and 0.3% CMC-Na was intraperitoneally administered at 10 ml/kg to each corresponding group. Lipo-polysaccharide (LPS) (product of SIGMA) was dissolved in physiological saline, and the solution was intraperitoneally administered to each mouse in an amount of 0.2 ml (50 μg/mouse) immediately after administration of the drug liquid.
After 90 minutes from administration of LPS, blood was collected from the eye socket, and the collected sample was allowed to stand for one hour at room temperature. Subsequently, the sample was centrifuged at 11,000 rpm for five minutes, and the serum was collected. […]

SMILES	TNF-α production relative to the TNF-α production of the control ([1]; 100 μM compound)	inhibition of serum TNF-α production compared with the control group (C) (in words) [2]	TNF-α production inhibitory effect, overall assessment (in words) [1]	TNF-α production relative to the TNF-α production of the control ([1]; 10 μM compound)	TNF-α production relative to the TNF-α production of the control ([1]; 50 μM compound)	inhibitory effect on TNF-α production (in words) ([1]; concentrations of 50 μM or less)
COC1=CC(=O)O[C@@H](/C=C/c2ccc3c(c2)OCO3)C1 [KAVA-1, (+)-Methysticin]	approximately 39%	almost comparable to that exerted by KAVA-2				
COc1ccc(/C=C/c2cc(OC)cc(=O)o2)cc1 [KAVA-2, Yangonin]	approximately 22%		strong TNF-A production inhibitory effect			
COc1cc(/C=C/c2ccccc2)oc(=O)c1 [KAVA-3, Desmethoxyyangonin]	approximately 0%		strong TNF-A production inhibitory effect	approximately 60%	approximately 22%	
COC1=CC(=O)O[C@@H](CCc2ccccc2)C1 [KAVA-4, (+)-Dihydrokavain]	approximately 60%	significantly (p<0.5) inhibited TNF-α production				no inhibitory effect
COC1=CC(=O)O[C@@H](/C=C/c2ccccc2)C1 [KAVA-5, (+)-Kavain]	approximately 39%					
